How the values were obtained:
Test in all cases: relative viability (nuclei count vs DMSO), 5 days (fraction); higher = more cells survive
201T = system: 201T
Procedure, shortened: (§1)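 After 5 days of treatment, lung cancer cells in 1536-well plates were fixed and stained in a single step (final 0.05% Triton X-100, 1% formaldehyde, 1 ug/ml Hoechst) and their nuclei counted on 4× images. Treatment had been applied by pin tool the day after seeding as one drug alone or as a fixed anchor-drug dose with five library-drug doses (not always all listed) in √10 steps. Relative viability is the nuclei count of treated wells divided by that of vehicle wells, and values are medians of duplicate plates.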

PC-14 = system: PC-14
Procedure, shortened: as §1

NCI-H23 = system: NCI-H23
Procedure, shortened: as §1

NCI-H1793 = system: NCI-H1793
Procedure, shortened: as §1

NCI-H358 = system: NCI-H358
Procedure, shortened: as §1

EMC-BAC-2 = system: EMC-BAC-2
Procedure, shortened: as §1

NCI-H1755 = system: NCI-H1755
Procedure, shortened: as §1

SK-MES-1 = system: SK-MES-1
Procedure, shortened: as §1

HCC-366 = system: HCC-366
Procedure, shortened: as §1

NCI-H1437 = system: NCI-H1437
Procedure, shortened: as §1

NCI-H1395 = system: NCI-H1395
Procedure, shortened: as §1

## CCNC(=O)c1noc(-c2cc(C(C)C)c(O)cc2O)c1-c1ccc(CN2CCOCC2)cc1 [Luminespib] + N=C(N)NC(=N)NCCc1ccccc1 [Phenformin] (partner 250 µM)
201T; first compound 0.002 µM
  relative viability: 0.396
201T; first compound 0.006325 µM
  relative viability: 0.465
201T; first compound 0.02 µM
  relative viability: 0.477
201T; first compound 0.06325 µM
  relative viability: 0.373
201T; first compound 0.2 µM
  relative viability: 0.24
PC-14; first compound 0.002 µM
  relative viability: 0.618
PC-14; first compound 0.006325 µM
  relative viability: 0.393
PC-14; first compound 0.02 µM
  relative viability: 0.196
PC-14; first compound 0.06325 µM
  relative viability: 0.0634
PC-14; first compound 0.2 µM
  relative viability: 0.0788
NCI-H23; first compound 0.002 µM
  relative viability: 0.821
NCI-H23; first compound 0.006325 µM
  relative viability: 0.727
NCI-H23; first compound 0.02 µM
  relative viability: 0.611
NCI-H23; first compound 0.06325 µM
  relative viability: 0.359
NCI-H23; first compound 0.2 µM
  relative viability: 0.16
NCI-H1793; first compound 0.002 µM
  relative viability: 0.367
NCI-H1793; first compound 0.006325 µM
  relative viability: 0.373
NCI-H1793; first compound 0.02 µM
  relative viability: 0.151
NCI-H1793; first compound 0.06325 µM
  relative viability: 0.102
NCI-H1793; first compound 0.2 µM
  relative viability: 0.138
NCI-H358; first compound 0.002 µM
  relative viability: 0.348
NCI-H358; first compound 0.006325 µM
  relative viability: 0.356
NCI-H358; first compound 0.02 µM
  relative viability: 0.152
NCI-H358; first compound 0.06325 µM
  relative viability: 0.0546
NCI-H358; first compound 0.2 µM
  relative viability: 0.0585
EMC-BAC-2; first compound 0.002 µM
  relative viability: 0.529
EMC-BAC-2; first compound 0.006325 µM
  relative viability: 0.48
EMC-BAC-2; first compound 0.02 µM
  relative viability: 0.429
EMC-BAC-2; first compound 0.06325 µM
  relative viability: 0.254
EMC-BAC-2; first compound 0.2 µM
  relative viability: 0.175
NCI-H1755; first compound 0.002 µM
  relative viability: 0.609
NCI-H1755; first compound 0.006325 µM
  relative viability: 0.552
NCI-H1755; first compound 0.02 µM
  relative viability: 0.552
NCI-H1755; first compound 0.06325 µM
  relative viability: 0.268
NCI-H1755; first compound 0.2 µM
  relative viability: 0.14
SK-MES-1; first compound 0.002 µM
  relative viability: 0.642
SK-MES-1; first compound 0.006325 µM
  relative viability: 0.623
SK-MES-1; first compound 0.02 µM
  relative viability: 0.702
SK-MES-1; first compound 0.06325 µM
  relative viability: 0.189
SK-MES-1; first compound 0.2 µM
  relative viability: 0.193
HCC-366; first compound 0.002 µM
  relative viability: 0.686
HCC-366; first compound 0.006325 µM
  relative viability: 0.59
HCC-366; first compound 0.02 µM
  relative viability: 0.697
HCC-366; first compound 0.06325 µM
  relative viability: 0.0486
HCC-366; first compound 0.2 µM
  relative viability: 0.0355
NCI-H1437; first compound 0.002 µM
  relative viability: 0.325
NCI-H1437; first compound 0.006325 µM
  relative viability: 0.3
NCI-H1437; first compound 0.02 µM
  relative viability: 0.358
NCI-H1437; first compound 0.06325 µM
  relative viability: 0.173
NCI-H1437; first compound 0.2 µM
  relative viability: 0.154
NCI-H1395; first compound 0.002 µM
  relative viability: 0.448
NCI-H1395; first compound 0.006325 µM
  relative viability: 0.401
NCI-H1395; first compound 0.02 µM
  relative viability: 0.39
NCI-H1395; first compound 0.06325 µM
  relative viability: 0.326
NCI-H1395; first compound 0.2 µM
  relative viability: 0.335
